In US8802597B2, “Herbicidal pyrimidines” (E I du Pont de Nemours and Company, priority 2003, dated 2014):
Read-outs that look alike come from different tables or passages of the source.

Key:
Test in all cases: Test C pre/postemergence
Type in all cases: in vivo
[1] = tested on: lambsquarters (Chenopodium album); details: Chenopodium album; for pest or weed control at 125 g/ha: 125 g ai/ha; for pest or weed control at 250 g/ha: 250 g ai/ha
How it was run: (§1)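 Greenhouse herbicide screen, visual readout. Compound in solvent/surfactant applied preemergence at planting or postemergence to 1- to 4-leaf plants; assessed at 12–14 days on a 0–100 control scale.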

[2] = tested on: morningglory (Ipomoea coccinea); details: Ipomoea; for pest or weed control at 31 g/ha: 31 g ai/ha; for pest or weed control at 62 g/ha: 62 g ai/ha; for pest or weed control at 125 g/ha: 125 g ai/ha; for pest or weed control at 250 g/ha: 250 g ai/ha
How it was run: as §1

[3] = tested on: soybean (Glycine max); details: Glycine max; for plant injury at 31 g/ha: 31 g ai/ha; for plant injury at 62 g/ha: 62 g ai/ha; for plant injury at 125 g/ha: 125 g ai/ha; for plant injury at 250 g/ha: 250 g ai/ha
How it was run: as §1

[4] = tested on: velvetleaf (Abutilon theophrasti); details: Abutilon theophrasti; for pest or weed control at 31 g/ha: 31 g ai/ha; for pest or weed control at 62 g/ha: 62 g ai/ha; for pest or weed control at 125 g/ha: 125 g ai/ha; for pest or weed control at 250 g/ha: 250 g ai/ha
How it was run: as §1

[5] = tested on: woolly cupgrass (Eriochloa villosa); details: Eriochloa villosa; for pest or weed control at 31 g/ha: 31 g ai/ha; for pest or weed control at 62 g/ha: 62 g ai/ha; for pest or weed control at 125 g/ha: 125 g ai/ha; for pest or weed control at 250 g/ha: 250 g ai/ha
How it was run: as §1

[6] = tested on: yellow nutsedge (Cyperus esculentus); details: Cyperus; for pest or weed control at 31 g/ha: 31 g ai/ha; for pest or weed control at 62 g/ha: 62 g ai/ha; for pest or weed control at 125 g/ha: 125 g ai/ha; for pest or weed control at 250 g/ha: 250 g ai/ha
How it was run: as §1

[7] = pre-emergence, Preemergence, scale 0 to 100, read-out: Plant response rating, Lambsquarters
[8] = post-emergence, Postemergence, scale 0 to 100 (0 no effect, 100 complete control), read-out: Morningglory plant response rating
[9] = pre-emergence, Preemergence, scale 0 to 100, 0 no effect, 100 complete control, read-out: Plant response rating, Morningglory
[10] = pre-emergence, Preemergence, scale 0 to 100, read-out: Plant response rating, Morningglory
[11] = post-emergence, Postemergence, scale 0 to 100 (0 no effect, 100 complete control), read-out: Soybean plant response rating
[12] = pre-emergence, Preemergence, scale 0 to 100, 0 no effect, 100 complete control, read-out: Plant response rating, Soybean
[13] = pre-emergence, Preemergence, scale 0 to 100, read-out: Plant response rating, Soybean
[14] = post-emergence, Postemergence, scale 0 to 100 (0 no effect, 100 complete control), read-out: Velvetleaf plant response rating
[15] = pre-emergence, Preemergence, scale 0 to 100, 0 no effect, 100 complete control, read-out: Plant response rating, Velvetleaf
[16] = pre-emergence, Preemergence, scale 0 to 100, read-out: Plant response rating, Velvetleaf
[17] = post-emergence, Postemergence, scale 0 to 100 (0 no effect, 100 complete control), read-out: Cupgrass, Woolly plant response rating
[18] = pre-emergence, Preemergence, scale 0 to 100, 0 no effect, 100 complete control, read-out: Plant response rating, Cupgrass, Woolly
[19] = pre-emergence, Preemergence, scale 0 to 100, read-out: Plant response rating, Cupgrass, Woolly
[20] = post-emergence, Postemergence, scale 0 to 100 (0 no effect, 100 complete control), read-out: Nutsedge, Yellow plant response rating
[21] = pre-emergence, Preemergence, scale 0 to 100, 0 no effect, 100 complete control, read-out: Plant response rating, Nutsedge, Yellow
[22] = pre-emergence, Preemergence, scale 0 to 100, read-out: Plant response rating, Nutsedge, Yellow

COC(=O)c1nc(C2CC2)nc(N)c1Br [Compound 2, methyl 6-amino-5-bromo-2-cyclopropyl-4-pyrimidinecarboxylate]
pest or weed control at 125 g/ha ([1]; post-emergence, Postemergence, scale 0 to 100 (0 no effect, 100 complete control), read-out: Lambsquarters plant response rating): 100%
pest or weed control at 250 g/ha ([1]; post-emergence, Postemergence, scale 0 to 100, read-out: Plant response rating, Lambsquarters): 100%
pest or weed control at 31 g/ha ([1]; pre-emergence, Preemergence, 31 g ai/ha, scale 0 to 100, 0 no effect, 100 complete control, read-out: Plant response rating, Lambsquarters): 90%
pest or weed control at 62 g/ha ([1]; pre-emergence, Preemergence, 62 g ai/ha, scale 0 to 100, 0 no effect, 100 complete control, read-out: Plant response rating, Lambsquarters): 100%
pest or weed control at 125 g/ha [1, 7]: 100%
pest or weed control at 250 g/ha [1, 7]: 100%
pest or weed control at 31 g/ha ([2]; post-emergence, Postemergence, read-out: Plant response rating (scale of 0 to 100), Morningglory): 70%
pest or weed control at 62 g/ha [2, 8]: 75%
pest or weed control at 125 g/ha [2, 8]: 100%
pest or weed control at 250 g/ha ([2]; post-emergence, Postemergence, scale 0 to 100, read-out: Plant response rating, Morningglory): 100%
pest or weed control at 31 g/ha [2, 9]: 100%
pest or weed control at 62 g/ha [2, 9]: 100%
pest or weed control at 125 g/ha [2, 10]: 100%
pest or weed control at 250 g/ha [2, 10]: 100%
plant injury at 31 g/ha ([3]; post-emergence, Postemergence, read-out: Plant response rating (scale of 0 to 100), Soybean): 100%
plant injury at 62 g/ha [3, 11]: 100%
plant injury at 125 g/ha [3, 11]: 100%
plant injury at 250 g/ha ([3]; post-emergence, Postemergence, scale 0 to 100, read-out: Plant response rating, Soybean): 100%
plant injury at 31 g/ha [3, 12]: 15%
plant injury at 62 g/ha [3, 12]: 75%
plant injury at 125 g/ha [3, 13]: 90%
plant injury at 250 g/ha [3, 13]: 100%
pest or weed control at 31 g/ha ([4]; post-emergence, Postemergence, read-out: Plant response rating (scale of 0 to 100), Velvetleaf): 65%
pest or weed control at 62 g/ha [4, 14]: 70%
pest or weed control at 125 g/ha [4, 14]: 80%
pest or weed control at 250 g/ha ([4]; post-emergence, Postemergence, scale 0 to 100, read-out: Plant response rating, Velvetleaf): 100%
pest or weed control at 31 g/ha [4, 15]: 20%
pest or weed control at 62 g/ha [4, 15]: 50%
pest or weed control at 125 g/ha [4, 16]: 75%
pest or weed control at 250 g/ha [4, 16]: 90%
pest or weed control at 31 g/ha ([5]; post-emergence, Postemergence, read-out: Plant response rating (scale of 0 to 100), Cupgrass, Woolly): 40%
pest or weed control at 62 g/ha [5, 17]: 60%
pest or weed control at 125 g/ha [5, 17]: 70%
pest or weed control at 250 g/ha ([5]; post-emergence, Postemergence, scale 0 to 100, read-out: Plant response rating, Cupgrass, Woolly): 75%
pest or weed control at 31 g/ha [5, 18]: 0%
pest or weed control at 62 g/ha [5, 18]: 0%
pest or weed control at 125 g/ha [5, 19]: 0%
pest or weed control at 250 g/ha [5, 19]: 45%
pest or weed control at 31 g/ha ([6]; post-emergence, Postemergence, read-out: Plant response rating (scale of 0 to 100), Nutsedge, Yellow): 0%
pest or weed control at 62 g/ha [6, 20]: 0%
pest or weed control at 125 g/ha [6, 20]: 0%
pest or weed control at 250 g/ha ([6]; post-emergence, Postemergence, scale 0 to 100, read-out: Plant response rating, Nutsedge, Yellow): 20%
pest or weed control at 31 g/ha [6, 21]: 0%
pest or weed control at 62 g/ha [6, 21]: 0%
pest or weed control at 125 g/ha [6, 22]: 0%
pest or weed control at 250 g/ha [6, 22]: 0%
